Reference: ChEMBL document CHEMBL1129780, “Adenine-arginine mimetics as bisubstrate analog inhibitors of cAMP-dependent protein kinase” (Bioorg Med Chem Lett, 1996)

Tests used:
Type in all cases: protein-complex assay
[1] = molecular target: T1, cAMP-dependent protein kinase A (Bos taurus, UniProt P00515+P00517+P05131+P31322); experiment: Inhibition of PKA at 2 mM ATP
[2] = molecular target: T1, cAMP-dependent protein kinase A; experiment: Inhibition of PKA at 100 uM ATP
[3] = molecular target: T1, cAMP-dependent protein kinase A; experiment: Inhibitory constant for Protein Kinase A

Row | IC50 [1] | IC50 [2] | Ki [3] | SMILES
1 | 6200 µM | 1700 µM | 150 µM | N=C(N)NCCOCCOCCn1cnc2c(N)ncnc21
2 | 790 µM | 420 µM | 38 µM | N=C(N)NCCn1cnc2c(N)ncnc21
3 | 760 µM | 320 µM | 29 µM | N=C(N)NCCOCCn1cnc2c(N)ncnc21
4 | 1100 µM | 160 µM | 15 µM | Nc1ncnc2c1ncn2[C@@H]1O[C@H](CO)[C@@H](O)[C@H]1O [ADENOSINE]
